From patent publication US20060111305A1, “Metabolites of certain [1,4]diazepino[6,7,1-ij]quinoline derivatives and methods of preparation and use thereof” (Wyeth, priority 2004, published 2006)
“And” between values parts separate entries of the source, which are not always exact repeats. Equal entries are not always repeated. Where two headings read alike, the source gives them in different places.

What was measured:
[1] = Concentrations of DCDQ and DCDQ carbamoyl glucuronide (M6) in human plasma, LC/SRM (Table 34); format: in vivo, healthy human subjects; details: for concentration at 6 h / concentration at 12 h / concentration at 24 h: human, oral, read-out: M6 concentration in plasma; for concentration at 6 h / concentration at 12 h / concentration at 24 h / M6 to DCDQ Ratios / M6 concentration in plasma: plasma
Description: Drug administration and specimen collection were performed in a randomized, double-blinded, placebo-controlled, ascending single dose study of the safety, tolerability, pharmacokinetics, and pharmacodynamics of DCDQ administered orally to healthy subjects and subjects with schizophrenia and schizoaffective disorder. The specimens were stored at approximately −70° C. until analysis for metabolite profiles and for ratios of carbamoyl glucuronide (M6) to DCDQ.
Plasma samples from fasted subjects 25, 28 and 30 in the 50 mg single dose group, fasted subjects 50, 51, 54 in the 200 mg single dose group, fasted subjects 74, 76, 79 in the 300 mg single dose group, fed subjects 83, 84, 86 in the 300 mg single dose group and fasted subjects 92, 94, 96 in the 500 mg single dose group were analyzed for DCDQ carbamoyl glucuronide (M6) concentrations. The internal standard d8-DCDQ (25 μL of 200 ng/mL methanol solution) was added to 100 μL of the plasma samples, followed by the addition of 300 μL of acetonitrile. The samples were mixed and centrifuged at 14000 rpm in an Eppendorf 5415C centrifuge (Brinkman Instruments Inc., Westbury, N.Y.) for 10 minutes. The supernatant of each sample was transferred to a clean tube and evaporated to dryness under a stream of nitrogen in a TurboVap LV evaporator (Caliper Life Sciences, Hopkinton, Mass.). The residue was reconstituted with 50 μL of methanol followed by the addition of 150 μL of water. The sample was mixed and centrifuged as described above. The supernatant was analyzed by LC/MS/MS analysis. Samples for standard curves were prepared with control plasma spiked with synthetic M6. The concentrations of M6 used for the standard curve ranged from 0 to 2500 ng/mL plasma.
LC/MS System 3 was used for semi-quantitative analysis of metabolite M6 (DCDQ carbamoyl glucuronide) in plasma and urine samples. The HPLC equipment for this LC/MS System consisted of a Thermo Surveyor HPLC (Thermo Electron Corp., San Jose, Calif.), including a Surveyor MS pump and autosampler. Separations were accomplished on a 5 micron Phenomenex Luna C18(2) column, 150×2 mm (Phenomenex, Torrance, Calif.). The autosampler and column temperatures were set at 5° C. and 40° C., respectively. The HPLC mobile phase consisted of 10 mM ammonium acetate (A) and methanol (B), and was delivered at 0.2 mL/min. The linear mobile phase gradient (HPLC Gradient 2) is shown below. During LC/MS sample analysis, up to 3 min of the initial flow was diverted away from the mass spectrometer prior to evaluation of metabolites.
The mass spectrometer used for semi-quantitative anslysis with LC/MS System 3 was a Finnigan TSQ Quantum triple quadrupole mass spectrometer (Thermo Electron Corp.). The mass spectrometer was equipped with an electrospray interface and operated in the positive ionization mode. Settings for this mass spectrometer are listed below.
LC/MS/MS analysis in the selected reaction monitoring (SRM) mode (LC/SRM) was conducted for DCDQ and M6 using the following settings.
The computer program Microsoft Excel® 97 was used to calculate means and standard deviations and to perform the student t-test. Xcalibur (version 1.3) and MassLynx software (version 4.0) were used for collection and analysis of LC/MS data. Peak area ratios of M6 to the internal standard were used for quantitation of M6 in plasma samples.

[2] = Incubation of [14C]DCDQ in rat fecal homogenate (stability); format: in vitro ADME; details: 37° C. for 24 hours
Description: Fecal elimination accounted for 21.1±2.1% of the dosed radioactivity recovered in the first 24 hours post-dosing for male rats. Extraction efficiency for the 8-24 hour fecal samples was 64.3%, while an average of 89.5% of the radioactivity was extracted from incubations of [^14C]DCDQ in control fecal homogenate. […] Metabolite profiles were not obtained from the 0-8 hour fecal samples because of low radioactivity (less than 0.1% of dosed radioactivity).

[3] = rats, previous mass balance study, oral dose; cited from earlier work
[4] = Incubation of [14C]DCDQ in dog fecal homogenate (stability); format: in vitro ADME; details: 37° C. for 24 hours
Description: An average of 70.2% of the fecal radioactivity was extracted, while an average of 88.2% of the radioactivity was extracted from incubations of [^14C]DCDQ in blank fecal homogenate. In fecal extracts, DCDQ was major radioactive component, representing 54.4% to 96.7% of the total radioactivity. The metabolites detected in feces included hydroxy DCDQ (M2, M3 and M19), a keto DCDQ ([…]) and an uncharacterized peak (M20). The most abundant metabolite […] represented up to 16.4% of the total radioactivity in fecal extracts. The glucuronide of hydroxy DCDQ (M9) and the carbamoyl glucuronide of DCDQ (M6) were not detected in feces.

[5] = dog, enteric-coated capsule, mass balance study; cited from earlier work
[6] = 50 mg (fasted), 6 hr, individual subjects
[7] = 50 mg (fasted), 12 hr, individual subjects
[8] = 50 mg (fasted), 24 hr, individual subjects
[9] = 200 mg (fasted), 6 hr, individual subjects
[10] = 200 mg (fasted), 12 hr, individual subjects
[11] = 200 mg (fasted), 24 hr, individual subjects
[12] = 300 mg (fasted), 6 hr, individual subjects
[13] = 300 mg (fasted), 12 hr, individual subjects
[14] = 300 mg (fasted), 24 hr, individual subjects
[15] = 300 mg (fed), 6 hr, individual subjects
[16] = 300 mg (fed), 12 hr, individual subjects

SMILES: O=C(O)[C@H]1O[C@@H](OC(=O)N2CCN3C[C@@H]4CCC[C@@H]4c4cccc(c43)C2)[C@H](O)[C@@H](O)[C@@H]1O [Metabolite M6, carbamoyl glucuronide of DCDQ]
- differences in M6 concentrations and M6 to DCDQ ratios between fasted and fed subjects ([1]; 300 mg of DCDQ): no statistically significant differences
- concentration at 6 h ([1]; 50 mg, 50 mg (fasted), 6 hr, Mean ± S.D.): 114 ± 26.9 ng/mL
- concentration at 6 h ([1]; 50 mg, 50 mg (fasted), 6 hr, individual subjects): 127 ng/mL
- concentration at 12 h ([1]; 50 mg, 50 mg (fasted), 12 hr, Mean ± S.D.): 12.4 ± 5 ng/mL
- concentration at 24 h ([1]; 50 mg, 50 mg (fasted), 24 hr, Mean (standard deviation not calculated)): 3.35 ng/mL
- concentration at 24 h ([1]; 50 mg, 50 mg (fasted), 24 hr, individual subjects): 3.1 ng/mL
- concentration at 6 h ([1]; 200 mg, 200 mg (fasted), 6 hr, Mean ± S.D.): 352 ± 228 ng/mL
- concentration at 12 h ([1]; 200 mg, 200 mg (fasted), 12 hr, Mean ± S.D.): 43.6 ± 17.1 ng/mL
- concentration at 24 h ([1]; 200 mg, 200 mg (fasted), 24 hr, Mean ± S.D.): 7.67 ± 2.5 ng/mL
- concentration at 24 h ([1]; 200 mg, 200 mg (fasted), 24 hr, individual subjects): 4.8 ng/mL
- concentration at 6 h ([1]; 300 mg, 300 mg (fasted), 6 hr, Mean ± S.D.): 237 ± 108 ng/mL
- concentration at 12 h ([1]; 300 mg, 300 mg (fasted), 12 hr, Mean ± S.D.): 88.7 ± 51.8 ng/mL
- concentration at 24 h ([1]; 300 mg, 300 mg (fasted), 24 hr, Mean ± S.D.): 28.9 ± 18.4 ng/mL
- concentration at 6 h ([1]; 300 mg, 300 mg (fed), 6 hr, Mean ± S.D.): 579 ± 354 ng/mL
- concentration at 12 h ([1]; 300 mg, 300 mg (fed), 12 hr, Mean ± S.D.): 286 ± 251 ng/mL
- concentration at 24 h ([1]; 300 mg, 300 mg (fed), 24 hr, Mean ± S.D.): 59 ± 75.9 ng/mL
- concentration at 6 h ([1]; 500 mg, 500 mg (fasted), 6 hr, Mean ± S.D.): 1020 ± 444 ng/mL
- concentration at 12 h ([1]; 500 mg, 500 mg (fasted), 12 hr, Mean ± S.D.): 178 ± 30.1 ng/mL
- concentration at 12 h ([1]; 500 mg, 500 mg (fasted), 12 hr, individual subjects): 146 ng/mL
- concentration at 24 h ([1]; 500 mg, 500 mg (fasted), 24 hr, Mean ± S.D.): 49.6 ± 32.6 ng/mL
- M6 to DCDQ Ratios ([1]; 50 mg (fasted), 6 hr, Mean ± S.D.): 74.3 ± 59.6
- M6 concentration in plasma [1, 6]: 132 ng/mL and 83.1 ng/mL
- M6 to DCDQ Ratios [1, 6]: 141 and 26.4
- M6 to DCDQ Ratios ([1]; 50 mg (fasted), 12 hr, Mean ± S.D.): 14.8 ± 7.87
- M6 concentration in plasma [1, 7]: 15.1 ng/mL and 6.60 ng/mL and 15.4 ng/mL
- M6 to DCDQ Ratios [1, 7]: 21.6 and 16.5 and 6.16
- M6 to DCDQ Ratios ([1]; 50 mg (fasted), 24 hr, Mean (standard deviation not calculated)): 10.8
- M6 concentration in plasma [1, 8]: 3.6 ng/mL
- M6 to DCDQ Ratios [1, 8]: 15.5 and 6.00
- M6 to DCDQ Ratios ([1]; 200 mg (fasted), 6 hr, Mean ± S.D.): 45.2 ± 34.0
- M6 concentration in plasma [1, 9]: 225 ng/mL and 615 ng/mL and 216 ng/mL
- M6 to DCDQ Ratios [1, 9]: 83.3 and 34.2 and 18.0
- M6 to DCDQ Ratios ([1]; 200 mg (fasted), 12 hr, Mean ± S.D.): 14.3 ± 14.8
- M6 concentration in plasma [1, 10]: 37.5 ng/mL and 62.9 ng/mL and 30.3 ng/mL
- M6 to DCDQ Ratios [1, 10]: 31.3 and 6.84 and 4.73
- M6 to DCDQ Ratios ([1]; 200 mg (fasted), 24 hr, Mean ± S.D.): 8.42 ± 6.68
- M6 concentration in plasma [1, 11]: 8.8 ng/mL and 9.4 ng/mL
- M6 to DCDQ Ratios [1, 11]: 16.0 and 3.38 and 5.88
- M6 to DCDQ Ratios ([1]; 300 mg (fasted), 6 hr, Mean ± S.D.): 46.1 ± 21.6
- M6 concentration in plasma [1, 12]: 123 ng/mL and 249 ng/mL and 339 ng/mL
- M6 to DCDQ Ratios [1, 12]: 58.9 and 58.3 and 21.2
- M6 to DCDQ Ratios ([1]; 300 mg (fasted), 12 hr, Mean ± S.D.): 23.5 ± 5.10
- M6 concentration in plasma [1, 13]: 43.0 ng/mL and 78.0 ng/mL and 145 ng/mL
- M6 to DCDQ Ratios [1, 13]: 28.7 and 23.4 and 18.5
- M6 to DCDQ Ratios ([1]; 300 mg (fasted), 24 hr, Mean ± S.D.): 24.1 ± 22.7
- M6 concentration in plasma [1, 14]: 48.5 ng/mL and 12.0 ng/mL and 26.3 ng/mL
- M6 to DCDQ Ratios [1, 14]: 49.9 and 6.98 and 15.5
- M6 to DCDQ Ratios ([1]; 300 mg (fed), 6 hr, Mean ± S.D.): 76.6 ± 54.9
- M6 concentration in plasma [1, 15]: 860 ng/mL and 696 ng/mL and 182 ng/mL
- M6 to DCDQ Ratios [1, 15]: 45.3 and 44.6 and 140
- M6 concentration in plasma [1, 16]: 279 ng/mL and 38.1 ng/mL and 540 ng/mL
- M6 to DCDQ Ratios [1, 16]: 25.6 and 4.73
- M6 concentration in plasma ([1]; 300 mg (fed), 24 hr, individual subjects): 24.6 ng/mL and 6.40 ng/mL and 146 ng/mL
- M6 concentration in plasma ([1]; 500 mg (fasted), 6 hr, individual subjects): 1324 ng/mL and 508 ng/mL and 1221 ng/mL
- M6 concentration in plasma ([1]; 500 mg (fasted), 12 hr, individual subjects): 181 ng/mL and 206 ng/mL
- M6 concentration in plasma ([1]; 500 mg (fasted), 24 hr, individual subjects): 58.3 ng/mL and 13.5 ng/mL and 77.0 ng/mL

SMILES: c1cc2c3c(c1)[C@H]1CCC[C@H]1CN3CCNC2 [[^14C]DCDQ]
- degradation in fecal homogenate [2]: no detectable degradation
- dosed radioactivity recovered in urine [3]: 64.3%
- degradation in fecal homogenate [4]: no obvious degradation
- dose recovered in urine [5]: 32.7%
